Results on nine molecules are retold here after ChEMBL document CHEMBL3112395, “Synthesis and structure-activity relationship studies of N-terminal analogues of the antimicrobial peptide tridecaptin A(1)” (J Med Chem, 2014).

A short description of data set [1]: Cytotoxicity against HEK293 cells assessed as growth inhibition after 48 hrs by MTT assay. It counts as cell-based. The settings on record: human, read-out: MIC.
A short description of data set [2]: Hemolytic activity in rabbit erythrocytes at 83 ug/mL after 30 mins relative to control. It counts as ADME, cell-based, Oryctolagus cuniculus, Erythrocyte. To be noted: read-out: Activity.
The test system of data set [3] is Enterococcus faecium. As to the kind of experiment: Antibacterial activity against Enterococcus faecium ATCC 19434 assessed as growth inhibition by broth dilution method. It counts as functional. (In general: Broth dilution looks for growth in wells or tubes with falling amounts of substance.)
Data set [4] relates to Listeria monocytogenes. As to the kind of experiment: Antibacterial activity against Listeria monocytogenes ATCC […] assessed as growth inhibition by broth dilution method. It counts as functional.
The subject of data set [5] is Staphylococcus aureus. As to the kind of experiment: Antibacterial activity against Staphylococcus aureus ATCC 29213 assessed as growth inhibition by broth dilution method. Type of data set: functional.
For data set [6], the system named is Enterococcus faecalis. As to the kind of experiment: Antibacterial activity against Enterococcus faecalis ATCC 29212 assessed as growth inhibition by broth dilution method. Type of data set: functional.
For data set [7], the system named is Acinetobacter baumannii. As to the kind of experiment: Antibacterial activity against Acinetobacter baumannii ATCC 19606 assessed as growth inhibition by broth dilution method. Type of data set: functional.
Data set [8] concerns Klebsiella pneumoniae. As to the kind of experiment: Antibacterial activity against Klebsiella pneumoniae ATCC 13883 assessed as growth inhibition by broth dilution method. It counts as functional.
In data set [9] the test system is Campylobacter jejuni. As to the kind of experiment: Antibacterial activity against Campylobacter jejuni NCTC 11168 assessed as growth inhibition by broth dilution method. It counts as functional.
The test system of data set [10] is Salmonella enterica. As to the kind of experiment: Antibacterial activity against Salmonella enterica ATCC 13311 assessed as growth inhibition by broth dilution method. It counts as functional.
In data set [11] the test system is Pseudomonas aeruginosa. As to the kind of experiment: Antibacterial activity against Pseudomonas aeruginosa ATCC 27853 assessed as growth inhibition by broth dilution method. Type of data set: functional.
Data set [12] concerns Escherichia coli. As to the kind of experiment: Antibacterial activity against Escherichia coli ATCC 25922 assessed as growth inhibition by broth dilution method. It counts as functional.

One may read the MIC as the lowest concentration found to suppress growth.

Converted amounts (≈) assume the structure as drawn. A value given as a limit tells only on which side of the number the result lay.

Regarding `CC[C@H](C)CC[C@@H](O)CC(=O)N[C@@H](C(=O)N[C@H](CCN)C(=O)NCC(=O)N[C@H](CO)C(=O)N[C@H](Cc1c[nH]c2ccccc12)C(=O)N[C@@H](CO)C(=O)N[C@@H](CCN)C(=O)N[C@H](CCN)C(=O)N[C@@H](Cc1ccccc1)C(=O)N[C@@H](CCC(=O)O)C(=O)N[C@H](C(=O)N[C@@H](C(=O)N[C@@H](C)C(=O)O)[C@@H](C)CC)C(C)C)C(C)C`, in data set [1], the MCC at 48 h stood at 200 µg/mL. Also, the hemolysis at 0.5 h, 83 ug/mL in data set [2] amounted to 3.2%. Besides, the MIC in [3] was > 100 µg/mL; in data set [4] it was 50 µg/mL (≈ 32.2 µM); in data set [5], > 100 µg/mL; in data set [6], > 100 µg/mL; in data set [7], 12.5 µg/mL (≈ 8.06 µM); in data set [8] it was 3.13 µg/mL (≈ 2.02 µM). Moreover, the minimal inhibitory concentration (MIC) came out at 1.56 µg/mL (≈ 1.01 µM) in data set [9], 6.25 µg/mL (≈ 4.03 µM) in data set [10], 50 µg/mL (≈ 32.2 µM) in [11] and 3.13 µg/mL (≈ 2.02 µM) in data set [12].

Take `CC[C@@H](C)CC[C@@H](O)CC(=O)N[C@@H](C(=O)N[C@H](CCN)C(=O)NCC(=O)N[C@H](CO)C(=O)N[C@H](Cc1c[nH]c2ccccc12)C(=O)N[C@@H](CO)C(=O)N[C@@H](CCN)C(=O)N[C@H](CCN)C(=O)N[C@@H](Cc1ccccc1)C(=O)N[C@@H](CCC(=O)O)C(=O)N[C@H](C(=O)N[C@@H](C(=O)N[C@@H](C)C(=O)O)[C@@H](C)CC)C(C)C)C(C)C`: the minimal inhibitory concentration (MIC) was > 100 µg/mL in [3]; 100 µg/mL (≈ 64.5 µM) in data set [4]; > 100 µg/mL in [5]; > 100 µg/mL in data set [6]; 12.5 µg/mL (≈ 8.06 µM) in data set [7]; 6.25 µg/mL (≈ 4.03 µM) in data set [8]. Also, the MIC is 3.13 µg/mL (≈ 2.02 µM) in [9], 6.25 µg/mL (≈ 4.03 µM) in data set [10], 50 µg/mL (≈ 32.2 µM) in data set [11] and 3.13 µg/mL (≈ 2.02 µM) in [12].

Regarding `CC[C@H](C)CC[C@H](O)CC(=O)N[C@@H](C(=O)N[C@H](CCN)C(=O)NCC(=O)N[C@H](CO)C(=O)N[C@H](Cc1c[nH]c2ccccc12)C(=O)N[C@@H](CO)C(=O)N[C@@H](CCN)C(=O)N[C@H](CCN)C(=O)N[C@@H](Cc1ccccc1)C(=O)N[C@@H](CCC(=O)O)C(=O)N[C@H](C(=O)N[C@@H](C(=O)N[C@@H](C)C(=O)O)[C@@H](C)CC)C(C)C)C(C)C`, the minimal inhibitory concentration (MIC) was > 100 µg/mL in data set [3]; 100 µg/mL (≈ 64.5 µM) in [4]; > 100 µg/mL in data set [5]; > 100 µg/mL in data set [6]; 25 µg/mL (≈ 16.1 µM) in data set [7]; 6.25 µg/mL (≈ 4.03 µM) in data set [8]. Also, the MIC in data set [9] turned out to be 1.56 µg/mL (≈ 1.01 µM); in [10], 6.25 µg/mL (≈ 4.03 µM); in data set [11], 50 µg/mL (≈ 32.2 µM); in data set [12], 6.25 µg/mL (≈ 4.03 µM).

For `CC[C@@H](C)CC[C@H](O)CC(=O)N[C@@H](C(=O)N[C@H](CCN)C(=O)NCC(=O)N[C@H](CO)C(=O)N[C@H](Cc1c[nH]c2ccccc12)C(=O)N[C@@H](CO)C(=O)N[C@@H](CCN)C(=O)N[C@H](CCN)C(=O)N[C@@H](Cc1ccccc1)C(=O)N[C@@H](CCC(=O)O)C(=O)N[C@H](C(=O)N[C@@H](C(=O)N[C@@H](C)C(=O)O)[C@@H](C)CC)C(C)C)C(C)C`, the MIC in [3] is > 100 µg/mL; in data set [4], > 100 µg/mL; in data set [5] it was > 100 µg/mL; in data set [6] it was > 100 µg/mL; in [7] it was 50 µg/mL (≈ 32.2 µM); in [8], 12.5 µg/mL (≈ 8.06 µM). Moreover, the minimum inhibitory concentration (MIC) stood at 3.13 µg/mL (≈ 2.02 µM) in [9], 25 µg/mL (≈ 16.1 µM) in data set [10], 100 µg/mL (≈ 64.5 µM) in data set [11] and 12.5 µg/mL (≈ 8.06 µM) in [12].

For the molecule `CC[C@H](C)[C@@H](NC(=O)[C@@H](NC(=O)[C@H](CCC(=O)O)NC(=O)[C@H](Cc1ccccc1)NC(=O)[C@@H](CCN)NC(=O)[C@H](CCN)NC(=O)[C@H](CO)NC(=O)[C@@H](Cc1c[nH]c2ccccc12)NC(=O)[C@@H](CO)NC(=O)CNC(=O)[C@@H](CCN)NC(=O)[C@H](N)C(C)C)C(C)C)C(=O)N[C@@H](C)C(=O)O`, in [2], the hemolysis at 0.5 h, 83 ug/mL amounted to 0.5%. Besides, the MIC in data set [3] was > 100 µg/mL; in data set [4], > 100 µg/mL; in data set [5] it was > 100 µg/mL; in data set [6] it was > 100 µg/mL; in [7], > 100 µg/mL; in data set [8] it was 50 µg/mL (≈ 35.9 µM). Moreover, the minimal inhibitory concentration (MIC) is > 100 µg/mL in data set [9], 100 µg/mL (≈ 71.7 µM) in [10], 100 µg/mL (≈ 71.7 µM) in data set [11] and 100 µg/mL (≈ 71.7 µM) in [12].

For `CC[C@H](C)[C@@H](NC(=O)[C@@H](NC(=O)[C@H](CCC(=O)O)NC(=O)[C@H](Cc1ccccc1)NC(=O)[C@@H](CCN)NC(=O)[C@H](CCN)NC(=O)[C@H](CO)NC(=O)[C@@H](Cc1c[nH]c2ccccc12)NC(=O)[C@@H](CO)NC(=O)CNC(=O)[C@@H](CCN)NC(=O)[C@H](NC(C)=O)C(C)C)C(C)C)C(=O)N[C@@H](C)C(=O)O`, the minimal inhibitory concentration (MIC) in [3] is > 100 µg/mL; in data set [4] it was > 100 µg/mL; in data set [5], > 100 µg/mL; in [6], > 100 µg/mL; in [7] it was > 100 µg/mL; in [8], 50 µg/mL (≈ 34.8 µM). For the same molecule, the minimal inhibitory concentration (MIC) in data set [9] is 100 µg/mL (≈ 69.6 µM); in data set [10], 100 µg/mL (≈ 69.6 µM); in data set [11], > 100 µg/mL; in data set [12], 50 µg/mL (≈ 34.8 µM).

As to `CCCC(=O)N[C@@H](C(=O)N[C@H](CCN)C(=O)NCC(=O)N[C@H](CO)C(=O)N[C@H](Cc1c[nH]c2ccccc12)C(=O)N[C@@H](CO)C(=O)N[C@@H](CCN)C(=O)N[C@H](CCN)C(=O)N[C@@H](Cc1ccccc1)C(=O)N[C@@H](CCC(=O)O)C(=O)N[C@H](C(=O)N[C@@H](C(=O)N[C@@H](C)C(=O)O)[C@@H](C)CC)C(C)C)C(C)C`, in data set [2], the hemolysis at 0.5 h, 83 ug/mL came out at 0.8%. Further, the MIC in [3] was > 100 µg/mL; in data set [4], > 100 µg/mL; in data set [5] it was > 100 µg/mL; in [6], > 100 µg/mL; in [7] it was 100 µg/mL (≈ 68.3 µM); in data set [8] it was 25 µg/mL (≈ 17.1 µM). The minimum inhibitory concentration (MIC) in data set [9] was 12.5 µg/mL (≈ 8.53 µM); in data set [10], 25 µg/mL (≈ 17.1 µM); in data set [11], > 100 µg/mL; in data set [12] it was 12.5 µg/mL (≈ 8.53 µM).

Take `CCCCCCCCCCCC(=O)N[C@@H](C(=O)N[C@H](CCN)C(=O)NCC(=O)N[C@H](CO)C(=O)N[C@H](Cc1c[nH]c2ccccc12)C(=O)N[C@@H](CO)C(=O)N[C@@H](CCN)C(=O)N[C@H](CCN)C(=O)N[C@@H](Cc1ccccc1)C(=O)N[C@@H](CCC(=O)O)C(=O)N[C@H](C(=O)N[C@@H](C(=O)N[C@@H](C)C(=O)O)[C@@H](C)CC)C(C)C)C(C)C`: in data set [2], the hemolysis at 0.5 h, 83 ug/mL worked out at 82.2%. The MIC was 100 µg/mL (≈ 63.4 µM) in data set [3]; 50 µg/mL (≈ 31.7 µM) in data set [4]; > 100 µg/mL in [5]; > 100 µg/mL in data set [6]; 50 µg/mL (≈ 31.7 µM) in data set [7]; 12.5 µg/mL (≈ 7.93 µM) in data set [8]. Besides, the MIC in [9] is 0.4 µg/mL (≈ 0.254 µM); in data set [10], 50 µg/mL (≈ 31.7 µM); in [11], > 100 µg/mL; in [12], 12.5 µg/mL (≈ 7.93 µM).

With `CC[C@H](C)[C@@H](NC(=O)[C@@H](NC(=O)[C@H](CCC(=O)O)NC(=O)[C@H](Cc1ccccc1)NC(=O)[C@@H](CCN)NC(=O)[C@H](CCN)NC(=O)[C@H](CO)NC(=O)[C@@H](Cc1c[nH]c2ccccc12)NC(=O)[C@@H](CO)NC(=O)CNC(=O)[C@@H](CCN)NC(=O)[C@H](NC(=O)OCC1c2ccccc2-c2ccccc21)C(C)C)C(C)C)C(=O)N[C@@H](C)C(=O)O`, the hemolysis at 0.5 h, 83 ug/mL in [2] amounted to 100%. The MIC in data set [3] came to 25 µg/mL (≈ 15.5 µM); in [4] it was 12.5 µg/mL (≈ 7.73 µM); in data set [5] it was 100 µg/mL (≈ 61.8 µM); in data set [6] it was 50 µg/mL (≈ 30.9 µM); in [7], 12.5 µg/mL (≈ 7.73 µM); in data set [8] it was 6.25 µg/mL (≈ 3.87 µM). In addition, the MIC in data set [9] was 0.78 µg/mL (≈ 0.482 µM); in data set [10], 6.25 µg/mL (≈ 3.87 µM); in data set [11] it was > 100 µg/mL; in data set [12] it was 6.25 µg/mL (≈ 3.87 µM).
